# Test results published in US20190290892A1, “METHODS OF DETERMINING DOSING OF A THERAPEUTIC AGENT BASED ON MEASURED LEVELS OF A METABOLITE” (Clear Creek Bio, Inc., priority 2018, published 2019).
# What was measured:
# [1] = test system: advanced lung cancer; details: Gralla, weekly rapid iv injection from 5 mg/kg (200 mg/m^2), previously treated patients with advanced lung cancer; cited from earlier work
# [2] = Adverse events in subjects receiving brequinar intravenously once a week; type: in vivo, human; details: i.v. once a week, 209 subjects
# [3] = Burris, 650 mg/m^2 brequinar (days 1, 8 and 15) with 75 mg/m^2 cisplatin (day 1); cited from earlier work
smiles,measurement,setting,value
"NC(=O)c1[nH]nc([C@@H]2O[C@H](CO)[C@@H](O)[C@H]2O)c1O [pyrazofurin, 5-[(2S,3R,4S,5R)-3,4-dihydroxy-5-(hydroxymethyl)oxolan-2-yl]-4-hydroxy-1H-pyrazole-3-carboxamide]",therapeutic activity,[1],little therapeutic value as a single agent
"Cc1c(-c2ccc(-c3ccccc3F)cc2)nc2ccc(F)cc2c1C(=O)O [brequinar, 6-fluoro-2-(2′-fluoro-1,1′ biphenyl-4-yl)-3-methyl-4-quinoline carboxylic acid]","All Body Systems, No. of Patients Experiencing the AE, 5y Max Grade 1",[2],36
same,"All Body Systems, No. of Patients Experiencing the AE, 5y Max Grade 2",[2],76
same,"All Body Systems, No. of Patients Experiencing the AE, 5y Max Grade 3",[2],55
same,"All Body Systems, No. of Patients Experiencing the AE, 5y Max Grade 4",[2],35
same,"Anemia, No. of Patients",[2],90
same,"Anemia, No. of Patients Experiencing the AE, 5y Max Grade 1",[2],14
same,"Anemia, No. of Patients Experiencing the AE, 5y Max Grade 2",[2],48
same,"Anemia, No. of Patients Experiencing the AE, 5y Max Grade 3",[2],23
same,"Anemia, No. of Patients Experiencing the AE, 5y Max Grade 4",[2],5
same,"Anorexia, No. of Patients",[2],15
same,"Anorexia, No. of Patients Experiencing the AE, 5y Max Grade 1",[2],11
same,"Anorexia, No. of Patients Experiencing the AE, 5y Max Grade 2",[2],3
same,"Anorexia, No. of Patients Experiencing the AE, 5y Max Grade 3",[2],1
same,"Anorexia, No. of Patients Experiencing the AE, 5y Max Grade 4",[2],0
same,"Anorexia, Percent",[2],7.2%
same,"Constipation, No. of Patients",[2],10
same,"Constipation, No. of Patients Experiencing the AE, 5y Max Grade 1",[2],6
same,"Constipation, No. of Patients Experiencing the AE, 5y Max Grade 2",[2],2
same,"Constipation, No. of Patients Experiencing the AE, 5y Max Grade 3",[2],1
same,"Constipation, No. of Patients Experiencing the AE, 5y Max Grade 4",[2],0
same,"Constipation, Percent",[2],4.8%
same,"Diarrhea, No. of Patients",[2],77
same,"Diarrhea, No. of Patients Experiencing the AE, 5y Max Grade 1",[2],43
same,"Diarrhea, No. of Patients Experiencing the AE, 5y Max Grade 2",[2],21
same,"Diarrhea, No. of Patients Experiencing the AE, 5y Max Grade 3",[2],10
same,"Diarrhea, No. of Patients Experiencing the AE, 5y Max Grade 4",[2],3
same,"Dyspepsia, No. of Patients",[2],7
same,"Dyspepsia, No. of Patients Experiencing the AE, 5y Max Grade 1",[2],6
same,"Dyspepsia, No. of Patients Experiencing the AE, 5y Max Grade 2",[2],1
same,"Dyspepsia, No. of Patients Experiencing the AE, 5y Max Grade 3",[2],0
same,"Dyspepsia, No. of Patients Experiencing the AE, 5y Max Grade 4",[2],0
same,"Dyspepsia, Percent",[2],3.3%
same,"Fatigue, No. of Patients",[2],33
same,"Fatigue, No. of Patients Experiencing the AE, 5y Max Grade 1",[2],23
same,"Fatigue, No. of Patients Experiencing the AE, 5y Max Grade 2",[2],8
same,"Fatigue, No. of Patients Experiencing the AE, 5y Max Grade 3",[2],2
same,"Fatigue, No. of Patients Experiencing the AE, 5y Max Grade 4",[2],0
same,"Fever, No. of Patients",[2],11
same,"Fever, No. of Patients Experiencing the AE, 5y Max Grade 1",[2],4
same,"Fever, No. of Patients Experiencing the AE, 5y Max Grade 2",[2],7
same,"Fever, No. of Patients Experiencing the AE, 5y Max Grade 3",[2],0
same,"Fever, No. of Patients Experiencing the AE, 5y Max Grade 4",[2],0
same,"Fever, Percent",[2],5.3%
same,"Granulocytopenia, No. of Patients",[2],37
same,"Granulocytopenia, No. of Patients Experiencing the AE, 5y Max Grade 1",[2],16
same,"Granulocytopenia, No. of Patients Experiencing the AE, 5y Max Grade 2",[2],17
same,"Granulocytopenia, No. of Patients Experiencing the AE, 5y Max Grade 3",[2],3
same,"Granulocytopenia, No. of Patients Experiencing the AE, 5y Max Grade 4",[2],5
same,"Headache, No. of Patients",[2],7
same,"Headache, No. of Patients Experiencing the AE, 5y Max Grade 1",[2],4
same,"Headache, No. of Patients Experiencing the AE, 5y Max Grade 2",[2],3
same,"Headache, No. of Patients Experiencing the AE, 5y Max Grade 3",[2],0
same,"Headache, No. of Patients Experiencing the AE, 5y Max Grade 4",[2],0
same,"Headache, Percent",[2],3.3%
same,"Infection, No. of Patients",[2],7
same,"Infection, No. of Patients Experiencing the AE, 5y Max Grade 1",[2],4
same,"Infection, No. of Patients Experiencing the AE, 5y Max Grade 2",[2],3
same,"Infection, No. of Patients Experiencing the AE, 5y Max Grade 3",[2],0
same,"Infection, No. of Patients Experiencing the AE, 5y Max Grade 4",[2],0
same,"Infection, Percent",[2],3.3%
same,"Leukopenia, No. of Patients",[2],69
same,"Leukopenia, No. of Patients Experiencing the AE, 5y Max Grade 1",[2],26
same,"Leukopenia, No. of Patients Experiencing the AE, 5y Max Grade 2",[2],31
same,"Leukopenia, No. of Patients Experiencing the AE, 5y Max Grade 3",[2],10
same,"Leukopenia, No. of Patients Experiencing the AE, 5y Max Grade 4",[2],2
same,"Leukopenia, Percent",[2],33.0%
same,"Mucositis, No. of Patients",[2],52
same,"Mucositis, No. of Patients Experiencing the AE, 5y Max Grade 1",[2],23
same,"Mucositis, No. of Patients Experiencing the AE, 5y Max Grade 2",[2],15
same,"Mucositis, No. of Patients Experiencing the AE, 5y Max Grade 3",[2],11
same,"Mucositis, No. of Patients Experiencing the AE, 5y Max Grade 4",[2],3
same,"Nausea, No. of Patients",[2],91
same,"Nausea, No. of Patients Experiencing the AE, 5y Max Grade 1",[2],59
same,"Nausea, No. of Patients Experiencing the AE, 5y Max Grade 2",[2],19
same,"Nausea, No. of Patients Experiencing the AE, 5y Max Grade 3",[2],12
same,"Nausea, No. of Patients Experiencing the AE, 5y Max Grade 4",[2],1
same,"Pain Inject Site, No. of Patients",[2],24
same,"Pain Inject Site, No. of Patients Experiencing the AE, 5y Max Grade 1",[2],24
same,"Pain Inject Site, No. of Patients Experiencing the AE, 5y Max Grade 2",[2],0
same,"Pain Inject Site, No. of Patients Experiencing the AE, 5y Max Grade 3",[2],0
same,"Pain Inject Site, No. of Patients Experiencing the AE, 5y Max Grade 4",[2],0
same,"Pain, Abdominal, No. of Patients",[2],8
same,"Pain, Abdominal, No. of Patients Experiencing the AE, 5y Max Grade 1",[2],4
same,"Pain, Abdominal, No. of Patients Experiencing the AE, 5y Max Grade 2",[2],3
same,"Pain, Abdominal, No. of Patients Experiencing the AE, 5y Max Grade 3",[2],1
same,"Pain, Abdominal, No. of Patients Experiencing the AE, 5y Max Grade 4",[2],0
same,"Pain, Abdominal, Percent",[2],3.8%
same,"Rash, No. of Patients",[2],53
same,"Rash, No. of Patients Experiencing the AE, 5y Max Grade 1",[2],26
same,"Rash, No. of Patients Experiencing the AE, 5y Max Grade 2",[2],15
same,"Rash, No. of Patients Experiencing the AE, 5y Max Grade 3",[2],9
same,"Rash, No. of Patients Experiencing the AE, 5y Max Grade 4",[2],3
same,"Somnolence, No. of Patients",[2],9
same,"Somnolence, No. of Patients Experiencing the AE, 5y Max Grade 1",[2],7
same,"Somnolence, No. of Patients Experiencing the AE, 5y Max Grade 2",[2],2
same,"Somnolence, No. of Patients Experiencing the AE, 5y Max Grade 3",[2],0
same,"Somnolence, No. of Patients Experiencing the AE, 5y Max Grade 4",[2],0
same,"Somnolence, Percent",[2],4.3%
same,"Stomatitis, No. of Patients",[2],60
same,"Stomatitis, No. of Patients Experiencing the AE, 5y Max Grade 1",[2],32
same,"Stomatitis, No. of Patients Experiencing the AE, 5y Max Grade 2",[2],20
same,"Stomatitis, No. of Patients Experiencing the AE, 5y Max Grade 3",[2],7
same,"Stomatitis, No. of Patients Experiencing the AE, 5y Max Grade 4",[2],1
same,"Thrombocytopenia, No. of Patients",[2],94
same,"Thrombocytopenia, No. of Patients Experiencing the AE, 5y Max Grade 1",[2],26
same,"Thrombocytopenia, No. of Patients Experiencing the AE, 5y Max Grade 2",[2],31
same,"Thrombocytopenia, No. of Patients Experiencing the AE, 5y Max Grade 3",[2],16
same,"Thrombocytopenia, No. of Patients Experiencing the AE, 5y Max Grade 4",[2],21
same,"Thrombocytopenia, Percent",[2],45.0%
same,"Vomit, No. of Patients",[2],73
same,"Vomit, No. of Patients Experiencing the AE, 5y Max Grade 1",[2],32
same,"Vomit, No. of Patients Experiencing the AE, 5y Max Grade 2",[2],24
same,"Vomit, No. of Patients Experiencing the AE, 5y Max Grade 3",[2],12
same,"Vomit, No. of Patients Experiencing the AE, 5y Max Grade 4",[2],5
same,effect of combination on individual drug pharmacokinetic parameters,[3],without significant modifications of individual drug pharmacokinetic parameters
